Assay results from article PMC9189929, “Synthesis, Screening and Characterization of Novel Potent Arp2/3 Inhibitory Compounds Analogous to CK-666” (Frontiers in Pharmacology, 2022).
In brackets after ≈: the same amount, converted by molar mass. Entries after “also recorded” stand apart in the source; their conditions may differ.

What was measured:
[1] = tested on: MCF10A cells; experiment: EdU incorporation / cell cycle progression screen in MCF10A cells; format: cell-based, human; settings: for Outcome of EdU incorporation screen: 0.025 to 100 μM; for IC50: Homo sapiens, MCF-10A, 18 h treatment, rough values from Figure 1 graphs, read-out: IC50 (concentration required for 50% decrease of EdU-positive cells)
Procedure: For cell cycle progression using EdU, MCF10A cells were seeded in 384-well plates at a density of 800 cells per well. […] EdU from kit C10337 (ThermoFischer Scientific, Waltham, MA, United States) was then added to the cells at 10 μM and incubated for 2.5 h. Cells were fixed in 4% paraformaldehyde for 30 min at room temperature. Click-iT reaction was performed for 1 h at room temperature, protected from light, with 5 µM Alexa Fluor 488 azide in (100 mM Tris, 1 mM CuSO4, 50 mM Ascorbic Acid, pH 8.5). Nuclei were counterstained with Hoechst 33,342 (Thermo Fisher Scientific). Imaging and analysis were performed using the ImageXpress Micro XL High-Content Screening System (Molecular Devices LLC, San Jose, CA, United States). IC50 values were determined by sigmoidal curve fitting using GraphPad Prism six software.

[2] = tested on: B16-F1 cells; experiment: Lamellipodium formation in B16-F1 cells (cortactin immunofluorescence); format: cell-based, mouse; settings: for Inhibition of lamellipodium formation: 100 μM, 1 h; for Dose-dependent inhibition of lamellipodium formation, potency relative to CK-666: dose-dependent assay (Figure 2D)
Procedure: Lyophilized compounds were resuspended with fresh DMSO from sealed vials (cell biology grade). Compounds, stored at +4°C, were used within a week. B16-F1 cells were seeded onto glass coverslips coated for 1 h with 25 μg/ml laminin (Sigma) in (50 mM Tris, 150 mM NaCl, pH 7.4). […] Cell were then processed for immunofluorescence.
Cells were fixed in 3.2% PFA on PBS, then quenched with 50 mM NH4Cl and permeabilised with 0.5% Triton X-100. After blocking in 2% BSA cells were incubated with antibodies (1–5 μg/ml for the primary, 5 μg/ml for the secondary). Total actin in cells was visualized by phalloidin staining. Nuclei were stained with 0.3 μg/ml DAPI (Roche). Coverslips were mounted in Dako Fluorescence Mounting Medium (Agilent). For immunofluorescence, ARPC2 rabbit polyclonal antibody (Millipore, 07–227), Cortactin mouse monoclonal 4F11 (Millipore, 05–180) were used. Secondary goat anti-mouse and anti-rabbit antibodies conjugated with Alexa Fluor 555 and 647 respectively were from Life Technologies. Phalloidin conjugated with Alexa Fluor 488 was from Tebu-bio.
(§1) Image analysis was performed in ImageJ or FIJI software. To measure wound healing, boundaries of the wound were drawn manually at different time points, then wound size was measured.

[3] = tested on: B16-F1 cells; experiment: Wound healing (cell migration) of B16-F1 cells; format: cell-based, mouse; settings: for Inhibition of cell migration (wound healing) compared with 100 µM CK-666: compound at 25 µM
Procedure: For the wound healing, B16-F1 cells were seeded onto 8-well Ibidi dishes coated with laminin, and grown to confluence. Wounds in the cell monolayer were obtained by scratching the monolayer with a pipet tip. Detached cells were immediately washed away and new medium containing the various compounds was added. Cells were then used for videomicroscopy.
Videomicroscopy was performed on an inverted Axio Observer microscope (Zeiss) equipped with a Pecon Zeiss incubator XL multi S1 RED LS (Heating Unit XL S, Temp module, CO2 module, Heating Insert PS and CO2 cover), Definite focus module and a Hamamatsu camera C10600 Orca-R2. Phase contrast images were taken every 30 min for 24 h using the 10X/0.25 Plan-Apochromat air objective. For immunofluorescence, slides were observed and imaged with the 63X/1.4 Plan-Apochromat oil objective. Fluorophores were excited with the HBO 100 W lamp (Osram) installed in the HXP 120 Metal halide fluorescence light source (Zeiss).
as §1

[4] = biological target: T1, Arp2/3 (Bos taurus, UniProt A7MB62+P61157); experiment: Pyrene-actin polymerization assay; format: biochemical, bovine; settings: for IC50: 1.5 μM actin (10% pyrenyl-labeled), read-out: IC50 of Arp2/3-mediated actin polymerization; for IC50 / Arp2/3 inhibition reached at saturation: 20 nM Arp2/3, 250 nM N-WASP VCA; for Arp2/3 inhibition reached at saturation: 1.5 μM actin
T1 construct: purchased Cytoskeleton, Inc
Procedure: Actin was purified from rabbit muscle and was pyrenyl-labeled ([Carlier et al., 1984]; [Malm, 1984]). Arp2/3 was from Cytoskeleton, Inc. VCA domain of N-WASP was purified as previously described ([Clainche et al., 2003]). Pyrene-actin polymerization assays were performed as previously ([Romero et al., 2007]). Briefly, CaATP-actin was converted into MgATP-actin in (5 mM Tris, 0.2 mM ATP, 0.1 mM CaCl2, 1 mM DTT, 1 mM MgCl2, and 0.2 mM EGTA, pH 7.6) and kept on ice for no more than 1 h. Actin polymerization was monitored in (5 mM Tris, 50 mM KCl, 0.2 mM ATP, 0.1 mM CaCl2, 1 mM DTT, 1 mM MgCl2, 0.2 mM EGTA, pH 7.6) in the presence of 2% DMSO alone or 2% DMSO containing the appropriated compound concentration. The increase in fluorescence of 10% pyrenyl-labeled actin was monitored using a Safas spectrofluorimeter (λexc = 366 nm, λem = 407 nm). The maximum rate of actin polymerization was derived from the maximum slope of the polymerization curve multiplied by [total polymer]/(RFUmax—RFUmin) [total polymer] is the total actin minus the critical concentration (0.1 μM) and RFU, Relative Fluorescence Unit. The maximum elongation rates of actin polymerization were plotted as a function of the concentration of the different compounds. For CK-666, 59, 69 and 71, curves were fitted with the following equation to determine the IC50. Mrate= Rmax−Rmax−Rmin/1+IC50/(Compound Conc.) where Mrate is the measured maximum rate of actin polymerization at a given compound concentration, Rmax is the maximum rate of actin polymerization with no compound, and Rmin is the maximum rate of actin polymerization at saturating concentration of compound.
The curve of compound 15 was fitted with a linear decay. The IC50 was determined at half inhibition of actin polymerization.

[5] = tested on: sea urchin embryos; experiment: Sea urchin embryo development assay; format: in vivo, Paracentrotus lividus
Procedure: The procedure was described in detail in [Semenova et al., 2018]. Briefly, adult sea urchins, Paracentrotus lividus L (Echinidae), were collected from the Mediterranean Sea on the Cyprus coast and kept in an aerated seawater tank. Gametes were obtained by intracoelomic injection of 0.5 M KCl. Eggs were washed with filtered seawater and fertilized by adding drops of diluted sperm. Embryos were cultured at room temperature under gentle agitation with a motor-driven plastic paddle (60 rpm) in filtered seawater. […] For treatment with test compounds, 5 ml aliquots of embryo suspension were transferred to six-well plates and incubated at a concentration of 1,000–2,000 embryos/ml. For images, sedimented embryos were concentrated in the center of the well by gentle rotation of the culture plate, and 200 μl aliquots containing several hundred embryos were used to take pictures (up to 20 images from different fields). Embryos selected for Figure 4 were representative of the population.
(§2) Stock solutions of compounds were prepared in DMSO at 50–250 mM concentration followed by a 10-fold dilution with 96% EtOH. This procedure enhanced the solubility of the test compounds in the salty seawater. Maximal tolerated concentrations of DMSO and EtOH in the assay were determined to be 0.05 and 1%, respectively. Higher concentrations of either DMSO (>0.1%) or EtOH (>1%) caused nonspecific alterations and retardation of the sea urchin embryo development independent of the treatment stage. Maximum solubility of compounds 15, 59, 69, and 71 was about 5–20 mM in seawater, since visible crystals formed at higher concentrations.
The effects were assessed after exposure of fertilized eggs (8–15 min post fertilization, 45–55 min before the first mitotic cycle completion) to 2-fold decreasing concentrations of the compound. Embryonic development was monitored until the beginning of active feeding at four-arm pluteus stage (33–36 h postfertilization). Developmental abnormalities were estimated quantitatively as minimal effective concentration (MEC), resulting in inhibition of archenteron elongation or skeletal spicule formation.

[6] = Maximum solubility in seawater; format: physicochemical; settings: saline or isotonic, kinetic from dmso stock, visible crystals formed at higher concentrations
Procedure: as §2

[7] = treated at zygote stage, monitored to four-arm pluteus
[8] = observed up to four-arm mid-pluteus stage

| Compound | IC50 [4] [µM] | Arp2/3 inhibition reached at saturation [4] | solubility [6] [µM] | Outcome of EdU incorporation screen [1] | IC50 [1] [µM] | Inhibition of lamellipodium formation [2] | Inhibition of cell migration (wound healing) compared with 100 µM CK-666 [3] | also measured |
| --- | --- | --- | --- | --- | --- | --- | --- | --- |
| CCc1cc2cc(C(=O)NCCc3c(C)[nH]c4ccc(C)cc34)sc2s1 [Compound 24, N-[2-(2,5-Dimethyl-1H-indol-3-yl)ethyl]-5-ethylthieno[2,3-b]thiophene-2-carboxamide] |  |  |  | scored positive | 4.01 | significantly less active than CK-666 |  |  |
| Cc1[nH]c2ccccc2c1CCNC(=O)c1cc([N+](=O)[O-])ccc1Cl [Compound 12, 2-Chloro-N-[2-(2-methyl-1H-indol-3-yl)ethyl]-5-nitrobenzamide] |  |  |  | scored positive | 13.8 | significantly less active than CK-666 |  |  |
| COCC(=O)NCCc1c[nH]c2ccccc12 [CK-689, N-(2-(1H-Indol-3-yl)ethyl)-2-methoxy-acetamide, reference compound] |  |  |  |  |  | formed a single wide lamellipodium encompassing most cell perimeter |  | Inhibition of wound healing ([3]; 100 µM): but not CK-689, inhibits wound healing; Activity against Arp2/3 in vitro ([4]; pyrene-actin assay): inactive |
| Cc1ccc2[nH]c(C)c(CCNC(=O)c3ccc(C(=O)c4ccccc4)o3)c2c1 [Compound 30, 5-Benzoyl-N-[2-(2,5-dimethyl-1H-indol-3-yl)ethyl]-2-furamide] |  |  |  | scored positive | 0.696 | significantly less active than CK-666 |  |  |

Continued, in another order:

| IC50 [4] [µM] | Arp2/3 inhibition reached at saturation [4] | solubility [6] [µM] | Compound | Outcome of EdU incorporation screen [1] | IC50 [1] [µM] | Inhibition of lamellipodium formation [2] | Inhibition of cell migration (wound healing) compared with 100 µM CK-666 [3] | also measured |
| --- | --- | --- | --- | --- | --- | --- | --- | --- |
| 104 | 100% | 5 to 20 (≈ 1.91 to 7.65 µg/mL) | Cc1[nH]c2ccccc2c1CCNC(=O)c1ccccc1C(=O)c1ccccc1 [Compound 15, 2-Benzoyl-N-[2-(2-methyl-1H-indol-3-yl)ethyl]benzamide] | scored positive | 20 |  | inhibited cell migration as efficiently as 100 µM CK-666 | Dose-dependent inhibition of lamellipodium formation, potency relative to CK-666 [2]: significantly more potent than CK-666; Cell rounding and detachment in wound healing assay ([3]; 25 µM): not observed; Cell rounding and detachment in wound healing assay ([3]; 100 µM): induced cell rounding followed by detachment from the substrate; Developmental abnormality ([5]; 5 μM): suppressed plutei growth; Developmental abnormality ([5]; 20 μM): Non-specific defects; also recorded: defective gastrulation was observed; Minimum effective concentration, Systemic Toxicity [5, 7]: 5 µM |
| 539 | saturation was not reached | 5 to 20 (≈ 2.67 to 10.7 µg/mL) | Cc1[nH]c2c(C(F)(F)F)cccc2c1CCNC(=O)c1cc(S(=O)(=O)NC2CC2)c(Cl)cc1Cl [Compound 71, 2,4-Dichloro-5-[(cyclopropylamino)sulfonyl]-N-{2-[2-methyl-7-(trifluoromethyl)-1H-indol-3-yl]ethyl}benzamide] | scored positive | 3.58 |  | inhibited cell migration even more effectively | Dose-dependent inhibition of lamellipodium formation, potency relative to CK-666 [2]: significantly more potent than CK-666; Cell rounding and detachment in wound healing assay ([3]; 25 µM): still induced cell rounding; Cell rounding and detachment in wound healing assay ([3]; 100 µM): induced cell rounding followed by detachment from the substrate; Developmental abnormality ([5]; 5 μM): suppressed plutei growth; Developmental abnormality ([5]; 20 μM): defective gastrulation was observed; Minimum effective concentration, Systemic Toxicity [5, 7]: 5 µM |
| 61 | 67% | 5 to 20 (≈ 2.44 to 9.78 µg/mL) | Cc1[nH]c2c(Cl)cccc2c1CCNC(=O)c1cc(S(=O)(=O)N(C)C)c(Cl)cc1Cl [Compound 69, 2,4-Dichloro-N-[2-(7-chloro-2-methyl-1H-indol-3-yl)ethyl]-5-[(dimethylamino)sulfonyl]benzamide] | scored positive | 50.5 |  | inhibited cell migration as efficiently as 100 µM CK-666 | Developmental phenotype ([5]; 12 μM, 22°C): Defective gastrulation; Effect on archenteron elongation [5, 8]: inhibited elongation of the archenteron at approximately half-size; Effect on primary mesenchyme cell (PMC) migration [5, 8]: altered PMC migration resulting in the lack of ventrolateral clusters and spicules; Minimum effective concentration, Inhibition of Archenteron elongation [5, 7]: 5 µM; Minimum effective concentration, Inhibition of Spicule formation [5, 7]: 5 µM |
